Measured values as given in EP0884321A1, “Ascorbic acid 2-phosphate zinc salt and process for manufacturing the same” (priority 1997, dated 1998).
Structures can show the parent of a compound that is named as a salt. Where two headings read alike, the source gives them in different places.

Tests used:
B. subtilis (168 strain) = test: Antimicrobial effect, turbidity in NUTRIENT BROTH; format: cell-based; details: 0.1% salt, pH 6.8, about 10^7 cells/ml, 37°C for 24 hours
Method: (§1) To NUTRIENT BROTH (produced by DIFCO), 0.1% of an L-ascorbic acid 2-phosphate salt was added thereto, and the pH was adjusted to 6.8 using hydrochloric acid or sodium hydroxide. Using 5 ml of the medium thus prepared, test bacterium were inoculated in a concentration of about 10^7 cells/ml and incubated in a test tube at 37°C for 24 hours. […] As a control, the same test was performed using a medium not containing an L-ascorbic acid 2-phosphate salt.

E. coli (K-12 strain) = test: Antimicrobial effect, turbidity in NUTRIENT BROTH; format: cell-based; details: 0.1% salt, pH 6.8, about 10^7 cells/ml, 37°C for 24 hours
Method: as §1

[1] = cited from earlier work
[2] = Stability in buffer solution on storage (HPLC); format: physicochemical; details: about 0.1%, stored at 50°C for 476 hours; for Stability (100% = concentration before storage) pH: 8: 50 mM Tris-HCl; for Stability (100% = concentration before storage) pH: 5: 50 mM acetic acid-NaOH
Method: In the Examples and Test Examples, the analysis of an L-ascorbic acid 2-phosphate salt or an ion thereof was performed using an Ap-containing solution having a known concentration (prepared from L-ascorbic acid 2-phosphate magnesium salt) as a standard by an HPLC method using a Shodex IEC DEAE-825 resin (ammonium acetate 10 mM → 1M gradient, detected spectrophotometrically at 265 nm). The elemental analysis was performed by an ICP emission method, flame photometry and an ion chromatography method. Unless otherwise indicated, the reagents used herein were commercially available reagents.
The stability of L-ascorbic acid 2-phosphate zinc salt was compared to that of L-ascorbic acid 2-phosphate magnesium salt. Each salt was dissolved in a buffer solution (50 mM acetic acid-NaOH, pH: 5, or 50 mM Tris-HCl, pH: 8) to a concentration of about 0.1% and stored at 50°C for 476 hours. The concentrations of the L-ascorbic acid 2-phosphate before and after storage were analyzed by the HPLC method.

[3] = background statement on known salts

| SMILES | turbidity after incubation, B. subtilis (168 strain) (B. subtilis (168 strain)) | turbidity after incubation, E. coli (K-12 strain) (E. coli (K-12 strain)) | concentration of aqueous solution that can be formed (solubility in water) [1, 3] | also measured |
| --- | --- | --- | --- | --- |
| O=C1O[C@H]([C@@H](O)CO)C(O)=C1OP(=O)([O-])[O-].[Na+].[Na+] | + | + |  | concentration of aqueous solution that can be formed (solubility in water) [1]: about 30% |
| O=C1O[C@H]([C@@H](O)CO)C(O)=C1OP(=O)([O-])[O-].[Mg+2] [L-ascorbic acid 2-phosphate magnesium salt] | + | + | < 30% | Stability (100% = concentration before storage) pH: 8 ([2]; pH: 8): 95%; Stability (100% = concentration before storage) pH: 5 ([2]; pH: 5): 82% |
| O=C1O[C@H]([C@@H](O)CO)C(O)=C1OP(=O)([O-])[O-].[Zn+2] [L-ascorbic acid 2-phosphate zinc salt (Example 2)] |  |  |  | Stability (100% = concentration before storage) pH: 8 ([2]; pH: 8, 28560 min): 95%; Stability (100% = concentration before storage) pH: 5 ([2]; pH: 5, 28560 min): 92% |
| O=C1O[C@H]([C@@H](O)CO)C(O)=C1OP(=O)([O-])[O-].[Zn+2] [L-ascorbic acid 2-phosphate zinc salt] | - | - |  | solubility (Solubility in water): ≥ 500 mg/mL; remaining at 476 h ([2]; 50 mm acetic acid-naoh, pH 5, 50 mM acetic acid-NaOH, pH: 5, read-out: Stability (100% = concentration before storage) pH: 5): 91%; remaining at 476 h ([2]; 50 mm tris-hcl, pH 8, 50 mM Tris-HCl, pH: 8, read-out: Stability (100% = concentration before storage) pH: 8): 93% |
| O=C1O[C@H]([C@@H](O)CO)C(O)=C1OP(=O)(O)O [calcium salt] |  |  | scarcely dissolves in water |  |
